Assay results as given in article PMC9123247 (Drug Design, Development and Therapy, 2022).
Like-named read-outs stand apart in the source and are kept apart here.

Legend:
[1] = tested on: A549 lung cancer cell line; test: MTT anti-proliferative assay, lung cancer cell line A549; format: cell-based; details: Homo sapiens, A549, read-out: IC50 (µM) A549, MTT assay, lung cancer cell line A549; average ± standard deviation of independent triplicates
[2] = tested on: T-47D breast cancer cell line; test: MTT anti-proliferative assay, breast cancer cell line T-47D; format: cell-based; details: Homo sapiens, T47D

C#Cc1cccc(Nc2ncnc3cc(OCCOC)c(OCCOC)cc23)c1 [Erlotinib] gave an IC50 [1] of 5.73 ± 0.69 µM and an IC50 ([2]; read-out: IC50 (µM) T-47D, MTT assay, breast cancer cell line T-47D, average ± standard deviation of independent triplicates) of 8.14 ± 0.97 µM.
With CN[C@@H]1C[C@H]2O[C@@](C)([C@@H]1OC)n1c3ccccc3c3c4c(c5c6ccccc6n2c5c31)C(=O)NC4 [Staurosporine] the IC50 ([2]; read-out: IC50 (µM) T-47D) was 6.83 ± 1.03 µM.
